From patent US4338330A, “Benzimidazole derivatives, their use, and compositions containing these derivatives” (Continental Pharma, priority 1979, dated 1982)
Like-named read-outs stand apart in the source and are kept apart here.

Assays:
[1] = Antihypertensive activity, oral, unanesthetized spontaneously hypertensive rats; assay type: in vivo
Procedure: […] Only rats having a systolic pressure of 180 to 220 mm Hg are used. Two rats are used by product. The treatments are administered without the knowledge of the person making the measure.
The antihypertensive effects were recorded according to a score followed by an index. The scoring system is as follows.
The index is calculated by multiplying the systolic pressure difference (cmHg) measured every 30 minutes after the treatment, by a coefficient of 1 to 6 corresponding to times of 30 to 180 minutes.

[2] = LD50 in mice, oral (Lichtfield and Wilcoxon method); assay type: in vivo
Procedure: LD50 were determined according to the Lichtfield and Wilcoxon method (J. Pharmacol. Exp. Ther. 96, 99, 1949) and expressed in mg/kg. The products were administered to mice orally.

[3] = test system: guinea pig ileum contractions induced by acetylcholine; experiment: Antispasmodic activity against ileum contractions induced by acetylcholine
Procedure: (§1) The antispasmodic activity of the studied substances was examined against guinea pig ileum contractions induced by histamine and acetylcholine.
(§2) These experiences allow to make it obvious an antihistaminic, anticholinergic or musculotrope activity. The response to the contracting agent (sub-maximum concentration) is obtained every 5 minutes before and after injection of increasing concentrations of tested products (10^-7 M to 10^-4 M). The inhibition percentage under the influence of tested products is calculated and the theoretical concentration giving 50% of inhibition is graphically determined for each experience. These values are expressed in -log CI50 (M).

[4] = test system: chronotropic response to noradrenaline of isolated guinea pig auricles; experiment: β-lytic effect on the chronotropic response to noradrenaline of isolated auricles
Procedure: (§3) The β-lytic effect was searched on the chronotropic response to noradrenaline of isolated guinea pig auricles. Auricles were incubated for 20 minutes in a Tyrode solution at 29° C. in the presence of the substance to be tested at the concentration of 10^-6 M. A positive (+) or negative (-) chronotrope effect of the substance was noted using the following scores:
Then, the chronotrope effect of cumulative increasing concentrations of noradrenaline was recorded. The pD2 (-log CE50) value was calculated. A score of β-lytic activity of the substance was given as follows:
If the score at concentration of 10^-6 M was 3 or 4, the effect of the substance was examined at concentration of 10^-7 M and a score was recorded according to the same procedure.

[5] = test system: isolated guinea pig auricles; experiment: Chronotrope effect of the substance on isolated auricles; details: 10^-6 M, 20 minutes, Tyrode, 29° C.
Procedure: as §3, with “scores: […]” for “scores:”

[6] = test system: guinea pig ileum contractions induced by histamine; experiment: Antispasmodic activity against ileum contractions induced by histamine
Procedure: as §1, §2

[7] = 60 mg/kg oral, spontaneously hypertensive rats
[8] = 60 mg/kg oral, systolic pressure difference (cmHg) every 30 min multiplied by time coefficient 1 to 6
[9] = mouse, in vivo, po, read-out: LD50

Compound | Antihypertensive activity (score) [1, 7] | Antispasmodic activity, Ac. Chol. (-log CI50 (M)) [3] | β-lytic effect (score) ([4]; 10^-6 M) | β-lytic effect (score) ([4]; 10^-7 M) | Chronotrope effect (score) [5] | Antispasmodic activity, Hist. (-log CI50 (M)) [6] | also measured
CC(C)NCC(O)COc1ccc(-c2nc3cc(Cl)ccc3[nH]2)cc1 (centres unmarked) [Compound 16] | ++++ (reduction>50 mm Hg) | 5.25 -log CI50 (M) | 3 (if 6.00≥pD2 ≥5.51) | 1 (if 6.80≥pD2 ≥6.41) | 0 (if the frequency modification was comprised between +6 and -6) | 5.58 -log CI50 (M) | Antihypertensive activity (index) [1, 8]: 90; LD50 [2, 9]: 1100 mg/kg
C[C@](N)(Cc1ccc(O)c(O)c1)C(=O)O [alpha-methyldopa, reference compound] |  |  |  |  |  |  | Antihypertensive activity (index) ([1]; 100 mg/kg oral): 47; Antihypertensive activity (score) ([1]; 100 mg/kg oral): +++ (reduction of 30 to 50 mm Hg)
OC(CNCCOc1ccc(Cl)cc1)COc1ccc(-c2nc3ccccc3[nH]2)cc1 (centres unmarked) [Compound 21] | 0 (reduction <10 mm Hg) |  |  |  |  |  | 
O=C(Cc1ccccc1)NCCNCC(O)COc1ccc(-c2nc3ccccc3[nH]2)cc1 (centres unmarked) [Compound 27, 2-{4-[3-(2-phenylacetamidoethyl)amino-2-hydroxypropoxy]phenyl}benzimidazole] |  |  | 4 (if pD2 ≤5.50) | 3 (if 6.00≥pD2 ≥5.51) | 0 (if the frequency modification was comprised between +6 and -6) |  | 
Cc1cc(-c2nc3ccccc3[nH]2)ccc1OCC(O)CNC(C)C (centres unmarked) [Compound 20] | 0 (reduction <10 mm Hg) |  | 4 (if pD2 ≤5.50) | 1 (if 6.80≥pD2 ≥6.41) | 0 (if the frequency modification was comprised between +6 and -6) |  | 
COc1cc(-c2nc3ccccc3[nH]2)ccc1OCC(O)CNC(C)C (centres unmarked) [Compound 25, 2-[4-(3-isopropylamino-2-hydroxypropoxy)-3-methoxyphenyl]benzimidazole] |  |  | 3 (if 6.00≥pD2 ≥5.51) | 1 (if 6.80≥pD2 ≥6.41) | 0 (if the frequency modification was comprised between +6 and -6) |  | 
CC(C)NCC(O)COc1ccc(-c2nc3ccccc3[nH]2)cc1 (centres unmarked) [Compound 8, 2-[4-(3-isopropylamino-2-hydroxypropoxy)phenyl]benzimidazole] |  | 4.95 -log CI50 (M) | 4 (if pD2 ≤5.50) |  | 0 (if the frequency modification was comprised between +6 and -6) | 4.65 -log CI50 (M) | Antihypertensive activity (index) ([1]; at 10 mg, oral): 66; Antihypertensive activity (score) ([1]; at 10 mg, oral): +++ (reduction of 30 to 50 mm Hg); LD50 [2]: > 2248 mg/kg
CC(CCc1ccc2c(c1)OCO2)NCC(O)COc1ccc(-c2nc3ccccc3[nH]2)cc1 (centres unmarked) [Compound 13] | 0 (reduction <10 mm Hg) | 6.15 -log CI50 (M) | 2 (if 6.40≥pD2 ≥6.01) |  | 0 (if the frequency modification was comprised between +6 and -6) | 6.46 -log CI50 (M) | LD50 [2, 9]: > 1000 mg/kg
CC(C)NCC(O)COc1ccc(-c2nc3c([N+](=O)[O-])cccc3[nH]2)cc1 (centres unmarked) [Compound 17] | ++++ (reduction>50 mm Hg) | 5.60 -log CI50 (M) | 3 (if 6.00≥pD2 ≥5.51) | 2 (if 6.40≥pD2 ≥6.01) | 0 (if the frequency modification was comprised between +6 and -6) | 5.15 -log CI50 (M) | Antihypertensive activity (index) [1, 8]: 89
CC(C)NCC(O)COc1ccc(-c2nc3ccccc3[nH]2)cc1 (centres unmarked) [Compound 12, 2-[4-(3-isopropylamino-2-hydroxypropoxy)phenyl]benzimidazole] | ++++ (reduction>50 mm Hg) | 4.75 -log CI50 (M) | 4 (if pD2 ≤5.50) | 2 (if 6.40≥pD2 ≥6.01) | 0 (if the frequency modification was comprised between +6 and -6) | 4.60 -log CI50 (M) | Antihypertensive activity (index) [1, 8]: 160; LD50 [2]: 1950 mg/kg
CC(C)NCC(O)COc1ccc(-c2nc3ccccc3[nH]2)cc1 (centres unmarked) [Compound 11, 2-[4-(3-isopropylamino-2-hydroxypropoxy)phenyl]benzimidazole (dihydrated glucuronate)] |  | 4.30 -log CI50 (M) | 4 (if pD2 ≤5.50) |  | 1 | 4.52 -log CI50 (M) | Antihypertensive activity (index) ([1]; at 10 mg, oral): 51; Antihypertensive activity (score) ([1]; at 10 mg, oral): +++ (reduction of 30 to 50 mm Hg); LD50 [2]: 1494 mg/kg
CC(C)NCC(O)COc1ccc(-c2nc3cc([N+](=O)[O-])ccc3[nH]2)cc1 (centres unmarked) [Compound 24, 2-[4-(3-isopropylamino-2-hydroxypropoxy)-phenyl]-5(6)nitrobenzimidazole] |  | 5,45 -log CI50 (M) | 3 (if 6.00≥pD2 ≥5.51) | 2 (if 6.40≥pD2 ≥6.01) | 0 (if the frequency modification was comprised between +6 and -6) | 5,50 -log CI50 (M) | 
OC(CNC1CCCCC1)COc1ccc(-c2nc3ccccc3[nH]2)cc1 (centres unmarked) [Compound 18] | +++ (reduction of 30 to 50 mm Hg) | 5.21 -log CI50 (M) | 1 (if 6.80≥pD2 ≥6.41) |  | 0 (if the frequency modification was comprised between +6 and -6) | 5.45 -log CI50 (M) | Antihypertensive activity (index) [1, 8]: 83
COC(=O)[C@H]1[C@H]2C[C@@H]3c4[nH]c5cc(OC)ccc5c4CCN3C[C@H]2C[C@@H](OC(=O)c2cc(OC)c(OC)c(OC)c2)[C@@H]1OC [reserpine, reference compound] |  |  |  |  |  |  | Antihypertensive activity (index) ([1]; 3 mg/kg oral): 53; Antihypertensive activity (score) ([1]; 3 mg/kg oral): +++ (reduction of 30 to 50 mm Hg)
CC(C)C(=O)NCCNCC(O)COc1ccc(-c2nc3ccccc3[nH]2)cc1 (centres unmarked) [Compound 26, 2-{4-[3-(2-isobutyramidoethyl)amino-2-hydroxypropoxy]phenyl}benzimidazole] |  |  | 4 (if pD2 ≤5.50) | 3 (if 6.00≥pD2 ≥5.51) | 0 (if the frequency modification was comprised between +6 and -6) |  | 
COc1ccc2[nH]c(-c3ccc(OCC(O)CNC(C)C)cc3)nc2c1 (centres unmarked) [Compound 19] | +++ (reduction of 30 to 50 mm Hg) | 4.70 -log CI50 (M) | 4 (if pD2 ≤5.50) |  | 1 | 4.99 -log CI50 (M) | Antihypertensive activity (index) [1, 8]: 59
Cc1ccc(OCCNCC(O)COc2ccc(-c3nc4ccccc4[nH]3)cc2)cc1 (centres unmarked) [Compound 22] | 0 (reduction <10 mm Hg) | 5,35 -log CI50 (M) | 2 (if 6.40≥pD2 ≥6.01) |  | 0 (if the frequency modification was comprised between +6 and -6) | 5,65 -log CI50 (M) | 
